Data: article PMC4850295, “Using a Genetically Encoded Sensor to Identify Inhibitors of Toxoplasma gondii Ca^2+ Signaling” (The Journal of Biological Chemistry, 2016)

system: T1, GCaMP5-expressing T. gondii; set-up: species or system GCaMP5-expressing Toxoplasma gondii, extracellular; GCaMP5 fluorescence (cytosolic Ca2+) after 100 uM zaprinast in compound-pretreated extracellular parasites, background-subtracted, relative to zaprinast alone; conditions: 100 uM zaprinast stimulation; 10 min pretreatment; mean of two replicates; 0.23 h
T1 construct: whole extracellular parasites expressing GCaMP5 Ca2+ sensor
Summary of the method: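 Read-out is GCaMP5 calcium fluorescence (ex 485/em 525 nm) taken 4 min after 100 μM zaprinast at 37 °C, following 10 min compound pretreatment at 10 μM in duplicate biological replicates. Values are basal-subtracted fold change versus zaprinast-only controls; parasites held extracellular in Ringer's solution.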

Row | SMILES | fold change in fluorescence relative to zaprinast alone
1 | Cc1ccc2c(c1)/C(=N/Nc1ccc(S(N)(=O)=O)cc1)C(=O)N2 [GW275944X] | 1.616
2 | NS(=O)(=O)c1ccc(N/N=C2\C(=O)Nc3ccc(-c4cnco4)cc32)cc1 [GW276655X] | 1.083
3 | CS(=O)(=O)Nc1ccc(N/C=C2\C(=O)Nc3ccccc32)cc1 [GW278681X] | 1.254
4 | Cc1cc(Cl)cc2c1NC(=O)C2=NNc1ccc(S(N)(=O)=O)cc1 [GW279320X] | 1.035
5 | NS(=O)(=O)c1ccc(N/N=C2\C(=O)Nc3ccc(Cl)cc32)cc1 [GW280670X] | 0.9881
6 | Cn1cncc1-c1cc2c(Nc3ccc(OCc4ccccc4)cc3)ncnc2cn1 [GW281179X] | 1.036
7 | COc1cc2ncnc(Nc3ccc4c(cnn4Cc4ccccc4)c3)c2cc1OC [GW282449A] | 1.119
8 | COc1cc2ncnc(Nc3ccc4nc(-c5ccccc5)[nH]c4c3)c2cc1OC [GW282450A] | 0.9024
9 | Cc1cccc2c1NC(=O)/C2=N\Nc1ccc(S(N)(=O)=O)cc1 [GW282536X] | 1.189
10 | c1ccc(COc2ccc(Nc3ncnc4ccc(-c5ccco5)cc34)cc2)cc1 [GW284372X] | 0.7189
11 | O=C1Nc2ccccc2/C1=C/Nc1ccc2[nH]c(=O)[nH]c2c1 [GW284408X] | 0.9722
12 | NS(=O)(=O)c1ccc(N/N=C2\C(=O)Nc3ccc(C(=O)NCCCn4ccnc4)cc32)cc1 [GW290597X] | 1.214
13 | COc1ccc2[nH]c3c4[nH]c5ccc(OC)cc5c4c4c(c3c2c1)C(=O)NC4=O [GW296115X] | 0.5167
14 | NS(=O)(=O)c1ccc(N/C=C2\C(=O)Nc3ccc4ncsc4c32)cc1 [GW297361X] | 1.167
15 | NS(=O)(=O)c1ccc(N/N=C2\C(=O)Nc3ccc(C(=O)NCCc4c[nH]cn4)cc32)cc1 [GW300660X] | 1.243
16 | O=C1Nc2ccccc2/C1=C/Nc1ccc(-n2cncn2)cc1 [GW301789X] | 1.111
17 | CN(C)c1cc2c(Nc3ccc4nc(Cc5ccccc5)[nH]c4c3)ncnc2cn1 [GW301888X] | 1.125
18 | NS(=O)(=O)c1ccc(N/N=C2\C(=O)Nc3ccc4ncccc4c32)cc1 [GW305178X] | 0.9853
19 | Cn1cncc1-c1ccc2ncnc(Nc3ccc(OCc4ccccc4)cc3)c2c1 [GW320571X] | 0.8423
20 | C/C(Nc1ccc(S(N)(=O)=O)cc1)=C1/C(=O)Nc2ccccc21 [GW335962X] | 1.108
21 | CCn1cnc2c(N)ncnc21 [GW345098X] | 1.056
22 | NS(=O)(=O)c1ccc(N/N=C2\C(=O)Nc3cccc(CCc4ccncc4)c32)cc1 [GW352430A] | 1.031
23 | O=C1Nc2ccc(C(=O)c3ccco3)cc2C1=Cc1cc(Cl)c(O)c(Cl)c1 [GW406108X] | 1.311
24 | COC(=O)c1cncc(/C=C/c2c(C)cc(O)cc2C)c1 [GW406731X] | 0.8759
25 | c1ccc(Oc2ccc(Nc3ccnc4ccc(-c5ccccn5)cc34)cc2)cc1 [GW407034X] | 0.6551

Row | SMILES | fold change in fluorescence relative to zaprinast alone
26 | COc1cc2ncnc(Nc3ccc(C)c(O)c3)c2cc1OC [GW410563A] | 1.297
27 | CN(C)c1ccc2c(c1)/C(=C/Nc1ccc(S(N)(=O)=O)cc1)C(=O)N2 [GW416469X] | 1.109
28 | CC(C)COC(=O)c1ccc2c(c1)/C(=C/Nc1ccc(S(N)(=O)=O)cc1)C(=O)N2 [GW416981X] | 1.146
29 | Cc1cc(O)cc(C)c1/C=C/c1cncc(C(=O)N(C)C)c1 [GW427984X] | 1.241
30 | O=C1Nc2ccc(-c3cccnc3)cc2C1=Cc1cc(Br)c(O)c(Br)c1 [GW429374A] | 1.179
31 | CNC(=O)Oc1cc(C)c(/C=C/c2cncc(C(=O)NC)c2)c(C)c1 [GW432441X] | 1.157
32 | Fc1ccc(-c2nn3ccccc3c2-c2ccncc2)cc1 [GW434756X] | 0.1696
33 | Cc1cc(O)cc(C)c1/C=C/c1cncc(C(N)=O)c1 [GW435821X] | 1.076
34 | Cc1cc(O)cc(C)c1/C=C/c1cncc(C(=O)OC(C)(C)C)c1 [GW439255X] | 1.014
35 | COc1cc2nccc(Nc3ccc(OCc4ccc(NC(C)=O)cc4)cc3)c2cc1OC [GW440135A] | 1.118
36 | c1ccc(-c2ccc3c(Nc4ccc5[nH]ncc5c4)ccnc3c2)nc1 [GW440137A] | 1.678
37 | c1ccc(-c2ccc3c(Nc4ccc5[nH]ccc5c4)ccnc3c2)nc1 [GW440138A] | 1.081
38 | Cc1ccc(O)cc1Nc1ccnc2cc(-c3ccccn3)ccc12 [GW440139B] | 1.023
39 | Cc1ccc(C(=O)Nc2ccc(Nc3ccnc4cc(-c5ccccn5)ccc34)cc2O)cc1 [GW440146A] | 2.166
40 | CC(=O)Nc1ccc(COc2ccc(Nc3ccnc4cc(-c5ccccn5)ccc34)cc2)cc1 [GW440148A] | 1.657
41 | Cn1cc(C=C2C(=O)Nc3cccnc32)c2ccccc21 [GW441756X] | 1.234
42 | Cc1cc(O)cc(C)c1/C=C/c1cncc(-c2nn[nH]n2)c1 [GW441806A] | 1.117
43 | CNC(=O)c1cncc(/C=C/c2c(C)cccc2C)c1 [GW445012X] | 1.157
44 | CNC(=O)c1cncc(/C=C/c2c(Cl)cccc2Cl)c1 [GW445014X] | 1.122
45 | CNC(=O)c1cncc(/C=C/c2ccccc2C)c1 [GW445015X] | 1.264
46 | CCc1cccc(CC)c1/C=C/c1cncc(C(=O)NC)c1 [GW450241X] | 1.076
47 | Cc1ccn2nc(-c3ccc(F)cc3)c(-c3ccncc3)c2c1 [GW457859A] | 0.07245
48 | Cc1cc(-c2ccco2)cc(C)c1/C=C/c1cncc(-c2nn[nH]n2)c1 [GW458344A] | 1.482
49 | CS(=O)(=O)CCNCc1ccc(-c2ccc3ncnc(Nc4ccc(OCc5ccccc5)cc4)c3c2)o1 [GW458787A] | 0.4223
50 | CS(=O)(=O)CCNCc1nc(-c2ccc3ncnc(Nc4ccc(F)c(Cl)c4)c3c2)cs1 [GW461104B] | 0.6524

Row | SMILES | fold change in fluorescence relative to zaprinast alone
51 | Cc1ccc2c(-c3ccncc3)c(-c3ccc(F)cc3)nn2c1 [GW461484A] | 0.2133
52 | Cc1cccc2c(-c3ccncc3)c(-c3ccc(F)cc3)nn12 [GW461487A] | 0.2322
53 | Cc1c(O)cccc1Nc1ccnc2ccc(C(F)(F)F)cc12 [GW466413A] | 1.009
54 | COc1cccc2c(-c3ccncc3)c(-c3ccc(F)cc3)nn12 [GW468513X] | 0.06975
55 | Fc1ccc(-c2nn3cccc(F)c3c2-c2ccncc2)cc1 [GW475620X] | 0.2984
56 | CC(C)c1ccc(O)cc1Nc1ccnc2ccc(C(F)(F)F)cc12 [GW482059X] | 1.143
57 | CC(=O)c1c(-c2ccncc2)[nH]c(-c2ccncc2)c1C [GW493036X] | 1.057
58 | Oc1cccc(Nc2ccnc3cc(-c4ccncc4)ccc23)c1 [GW494601A] | 1.032
59 | COc1cc(Nc2ccnc3cc(-c4ccncc4)ccc23)cc(OC)c1OC [GW494610A] | 0.2498
60 | Cc1ccc(C(=O)Nc2ccc(Nc3ccnc4cc(-c5nccs5)ccc34)cc2O)cc1 [GW494702A] | 0.9828
61 | Cc1cc(NCC(c2ccccc2)c2ccccc2)nc(NCc2ccc(C(F)(F)F)cc2)n1 [GW497681X] | 1.268
62 | COc1cc(C=NNc2ncnc3c2cnn3-c2ccccc2)ccc1O [GW513184X] | 0.5493
63 | Fc1ccc(-c2nn3c(OCC(F)(F)F)cccc3c2-c2ccncc2)cc1 [GW514784X] | 0.04564
64 | CSc1cccc2c(-c3ccncn3)c(-c3ccc(F)cc3)nn12 [GW514786X] | 0.1155
65 | Cc1cccc2c(-c3ccncn3)c(-c3ccc(F)cc3)nn12 [GW515532X] | 0.6118
66 | Nc1nc(-c2ccccn2)c(-c2ccnc3ccccc23)s1 [GW548057X] | 0.7803
67 | c1ccc(Nc2ncc(-c3ccccc3)o2)cc1 [GW549390X] | 1.88
68 | Fc1cc(Cl)ccc1Nc1ccnc2cc(I)ccc12 [GW551191X] | 1.044
69 | Oc1cc(Nc2ccnc3cc(I)ccc23)ccc1F [GW552771X] | 0.9648
70 | Nc1n[nH]c2nnc(-c3ccccc3)c(-c3ccccc3)c12 [GW554060X] | 1.19
71 | Cc1ccc(O)cc1Nc1ccnc2cc(-c3ccc(CN4CCCCC4)o3)ccc12 [GW557777X] | 0.8105
72 | Cc1ccc(O)cc1Nc1ccnc2ccc(S(C)(=O)=O)cc12 [GW559768X] | 1.199
73 | Fc1cc(Cl)ccc1Nc1ccnc2cc(-c3ccc(CN4CCSCC4)o3)ccc12 [GW560106X] | 0.6773
